Where two headings read alike, the source gives them in different places.
Key:
[1] = molecular target: T1, menin/MLL (terbium chelate-labeled menin, FITC-MBM1 peptide) (Homo sapiens, UniProt O00255, T541A); test: Menin/MLL homogenous time-resolved fluorescence (HTRF) assay; type: binding; conditions: 30 min incubation
T1 construct: Menin (a.a 1-610-6xhis tag, 2.3 mg/mL in 20 mM Hepes)
T1 sequence (O00255 with tags, fused parts or gaps T541A): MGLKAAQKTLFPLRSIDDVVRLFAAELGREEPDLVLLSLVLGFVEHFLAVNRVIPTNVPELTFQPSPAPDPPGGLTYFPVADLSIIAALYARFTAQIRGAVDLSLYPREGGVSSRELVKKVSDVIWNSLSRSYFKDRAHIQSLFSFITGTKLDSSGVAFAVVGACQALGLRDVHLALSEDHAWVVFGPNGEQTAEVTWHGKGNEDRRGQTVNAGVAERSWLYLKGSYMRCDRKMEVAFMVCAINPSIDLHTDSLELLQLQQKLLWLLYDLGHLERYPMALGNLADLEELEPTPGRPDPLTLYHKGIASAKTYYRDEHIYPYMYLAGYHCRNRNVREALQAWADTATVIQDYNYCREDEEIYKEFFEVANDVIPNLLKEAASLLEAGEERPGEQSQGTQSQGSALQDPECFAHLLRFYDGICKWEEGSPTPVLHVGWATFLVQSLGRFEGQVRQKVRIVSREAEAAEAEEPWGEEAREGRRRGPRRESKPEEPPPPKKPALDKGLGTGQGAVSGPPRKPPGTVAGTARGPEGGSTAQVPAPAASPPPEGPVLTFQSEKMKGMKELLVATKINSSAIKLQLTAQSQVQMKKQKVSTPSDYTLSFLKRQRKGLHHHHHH
Method in brief: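 Competition binding read by time-resolved FRET (FITC 520 nm over terbium 490 nm) after compound meets labeled menin 1-610-His […] for 30 min, then FITC-MBM1 (75 nM) for 15 min, ambient temperature, 0.5% DMSO. Eleven-point four-fold dilutions, usually starting at 10 μM, fitted to four-parameter curves for IC50.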

MOLM14 cells = test: Proliferation assay (spheroid confluence, 8 days), MOLM14; type: cell-based, human; conditions: read-out: spheroid assay_MOLM14 IC50
Procedure: (§1) The anti-proliferative effect of menin/MLL protein/protein interaction inhibitor test compounds was assessed in human leukemia cell lines. The cell line MOLM14 harbors a MLL translocation and expresses the MLL fusion protein MLL-AF9, respectively, as well as the wildtype protein from the second allele. OCI-AML3 cells that carry the NPM1c gene mutation were also tested. […] KO-52 was used as a control cell line containing two MLL (KMT2A) wildtype alleles in order to exclude compounds that display general cytotoxic effects.
(§2) MOLM14 cells were cultured in RPMI-1640 (Sigma Aldrich) supplemented with 10% heat-inactivated fetal bovine serum (HyClone), 2 mM L-glutamine (Sigma Aldrich) and 50 μg/ml gentamycin (Gibco). KO-52 and OCI-AML3 cell lines were propagated in alpha-MEM (Sigma Aldrich) supplemented with 20% heat-inactivated fetal bovine serum (HyClone), 2 mM L-glutamine (Sigma Aldrich) and 50 μg/ml gentamycin (Gibco).
(§3) In order to assess the anti-proliferative effects, 200 MOLM14 cells, 200 OCI-AML3 cells or 300 KO-52 cells were seeded in 200 μl media per well in 96-well round bottom, ultra-low attachment plates (Costar, catalogue number 7007). Cell seeding numbers were chosen based on growth curves to ensure linear growth throughout the experiment. Test compounds were added at different concentrations and the DMSO content was normalized to 0.3%. Cells were incubated for 8 days at 37° C. and 5% CO2. Spheroid like growth was measured in real-time by live-cell imaging (IncuCyteZOOM, Essenbio, 4×objective) acquiring images at day 8. Confluence (%) as a measure of spheroid size was determined using an integrated analysis tool.
(§4) In order to determine the effect of the test compounds over time, the confluence in each well as a measure of spheroid size, was calculated. Confluence of the highest dose of a reference compound was used as baseline for the LC (Low control) and the confluence of DMSO treated cells was used as 0% cytotoxicity (High Control, HC).
(§5) Absolute IC50 values were calculated as percent change in confluence as follows:
(§6) LC=Low Control: cells treated with e.g. 1 μM of the cytotoxic agent staurosporin, or e.g. cells treated with a high concentration of an alternative reference compound
(§7) HC=High Control: Mean confluence (%) (DMSO treated cells)
(§8) % Effect=100−(100*(Sample−LC)/(HC−LC))
(§9) GraphPad Prism (version 7.00) was used to calculate the IC50. Dose-response equation was used for the plot of % Effect vs Log10 compound concentration with a variable slope and fixing the maximum to 100% and the minimum to 0%.

KO-52 cells = test: Proliferation assay (spheroid confluence, 8 days), KO-52 control cell line; type: cell-based, human; conditions: Homo sapiens, read-out: spheroid assay_KO-52 IC50
Procedure: as §1, §2, §3, §4, §5, §6, §7, §8, §9

OCI-AML3 cells = test: Proliferation assay (spheroid confluence, 8 days), OCI-AML3; type: cell-based, human; conditions: OCI-AML3; read-out: spheroid assay_OCI-AML3 IC50
Procedure: as §1, §2, §3, §4, §5, §6, §7, §8, §9

MEIS1 mRNA expression = MEIS1 mRNA expression assay (Quantigene Singleplex) in MOLM14 cells; type: cell-based, human; conditions: 48 hours incubation
Method in brief: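 Read-out: MEIS1 transcript counts, background-subtracted and divided by RPL28, expressed as fold change over DMSO-treated cells, then dose-response modelled for IC50. MOLM14 cells (3,750/well) received graded compound for 48 h before lysis and QuantiGene hybridization at 55 °C.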

IC50 [1] [nM] | IC50 (MOLM14 cells; Homo sapiens, MOLM-14, MOLM14) [nM] | IC50 (OCI-AML3 cells) [nM] | IC50 (MEIS1 mRNA expression) [nM] | IC50 (MEIS1 mRNA expression; Homo sapiens, MOLM-14, 48 h) [nM] | IC50 (MOLM14 cells; MOLM14) [nM] | SMILES | IC50 (KO-52 cells) [nM]
0.013 | 2 |  |  |  |  | CCN(C(=O)c1cc(F)ccc1-n1cc(CC2CN(C(C(C)C)[C@H]3C[C@H](N4C[C@H]5CN(C(C)=O)C[C@@H]5C4)C3)C2)c2c(C)cncc21)C(C)C (mixture of isomers) [Compound 38b] | 1200
0.238 |  | 236 | 139 |  |  | Cc1cncc2c1c(C[C@@H]1CCN(CC3CCNC(=O)CC3)C1)cn2-c1ccc(F)cc1C(=O)N1CCC[C@H]1C (single isomer, unassigned) [Compound 353b] | 
0.337 | 1050 |  |  | 1340 |  | CC(=O)N1CCC(CN2CC[C@@H](Cc3cn(-c4ccc(F)cc4C(=O)N4CCC(O)C4C)c4cncc(C)c34)C2)CC1 (stereo in doubt) [Compound 325] | 
0.059 |  |  |  | 21 |  | CCN(C(=O)c1cc(F)ccc1-n1cc(CC2CN(C(C(C)C)[C@H]3C[C@@H](N4CCN(C(C)=O)CC4)C3)C2)c2c(C)cncc21)C(C)C (stereo partly drawn) [Compound 35a] | 1500
0.168 | 92 |  |  |  |  | CN=S(=O)(c1cc(F)ccc1-n1cc(CC2CN(CC3CCOCC3)C2)c2c(C)cncc21)C(C)C (stereo not drawn) [Compound 79] | 9400
0.116 | 99 |  |  |  |  | Cc1cncc2c1c(CC1CN(CC3CCOCC3)C1)cn2-c1ccc(F)cc1S(=N)(=O)C(C)C (stereo not drawn) [Compound 80] | 7200
0.054 | 539 |  |  | 149 |  | Cc1cncc2c1c(CC1CN(CC3CCC(=O)NC3)C1)cn2-c1ccc(F)cc1C(=O)N(C)C(C)C (stereo not drawn) [Compound 120] | 
~0.17 | 15 |  |  | 49 |  | CNC(=O)[C@H]1CC[C@H](CN2CC(C)(Cc3cn(-c4ccc(F)cc4C(=O)N(C)C(C)C)c4cncc(C)c34)C2)CC1 [Compound 140] | 
0.086 | 88 |  |  | 238 |  | Cc1cncc2c1c(C[C@@H]1CCN(C[C@@H]3CCCCN3)C1)cn2-c1ccc(F)cc1C(=O)N(C)C(C)C [Compound 148] | 
0.14 | 91 |  |  | 244 |  | COC(=O)[C@H]1CC[C@H](CN2CC[C@@H](Cc3cn(-c4ccc(F)cc4C(=O)N(C)C(C)C)c4cncc(C)c34)C2)CC1 [Compound 154] | 
0.051 | 49 |  |  | 54 |  | Cc1cncc2c1c(CC1CN(C[C@H]3CC[C@H](C(=O)NCCC#N)CC3)C1)cn2-c1ccc(F)cc1C(=O)N(C)C(C)C [Compound 155] | 
0.02 | 2 |  |  | 6 |  | Cc1cncc2c1c(C[C@H]1CCN(CC3CCN(C(=O)NC4CC4)CC3)C1)cn2-c1ccc(F)cc1C(=O)N(C)C(C)C [Compound 157] | 
0.045 | 6 |  |  | 24 |  | COCCNC(=O)[C@H]1CC[C@H](CN2CC(Cc3cn(-c4ccc(F)cc4C(=O)N(C)C(C)C)c4cncc(C)c34)C2)CC1 [Compound 158] | 
0.019 | 3 |  |  | 10 |  | Cc1cncc2c1c(CC1CN(C[C@H]3CC[C@H](C(=O)NC4CC4)CC3)C1)cn2-c1ccc(F)cc1C(=O)N(C)C(C)C [Compound 159] | 
0.167 | 53 |  |  | 256 |  | Cc1cncc2c1c(C[C@@H]1CCN(C3CCN(S(C)(=O)=O)CC3)C1)cn2-c1ccc(F)cc1C(=O)N(C)C(C)C [Compound 161] | 
0.1 |  |  | 16 |  | 8 | CNC(=O)N1CCC(CN2CC[C@H](Cc3cn(-c4ccc(F)cc4C(=O)N(C)C(C)C)c4cncc(C)c34)C2)CC1 [Compound 168] | 
0.155 | 14 |  |  | 79 |  | Cc1cncc2c1c(C[C@H]1CCN(CC3CCN(C(=O)N(C)C)CC3)C1)cn2-c1ccc(F)cc1C(=O)N(C)C(C)C [Compound 170] | 
0.134 | 11 |  |  | 18 |  | COCCN(C)C(=O)N1CCC(CN2CC[C@@H](Cc3cn(-c4ccc(F)cc4C(=O)N(C)C(C)C)c4cncc(C)c34)C2)CC1 [Compound 172] | 
0.056 | 5 |  |  | 32 |  | CON(C)C(=O)N1CCC(CN2CC[C@@H](Cc3cn(-c4ccc(F)cc4C(=O)N(C)C(C)C)c4cncc(C)c34)C2)CC1 [Compound 173] | 
0.048 | 7 |  |  | 34 |  | Cc1cncc2c1c(C[C@@H]1CCN(CC3CCN(C(=O)N4CCOCC4)CC3)C1)cn2-c1ccc(F)cc1C(=O)N(C)C(C)C [Compound 174] | 
0.109 | 35 |  |  | 268 |  | CC(=O)N1CCC(O)(CN2CC[C@@H](Cc3cn(-c4ccc(F)cc4C(=O)N(C)C(C)C)c4cncc(C)c34)C2)CC1 [Compound 177] | 
0.06 | 26 |  |  |  |  | Cc1cncc2c1c(C[C@@H]1CCN(CC3CCC(=O)N(C)CC3)C1)cn2-c1ccc(F)cc1C(=O)N(C)C(C)C (stereo partly drawn) [Compound 184] | 7400
0.155 | 179 |  |  | 552 |  | CC(=O)N1CCC(CN2CC[C@@H](Cc3cn(-c4ccc(F)cc4C(=O)N4CCC(O)C4(C)C)c4cncc(C)c34)C2)CC1 (stereo partly drawn) [Compound 313] | 
0.055 | 6 |  |  | 19 |  | [2H]C([2H])([2H])N(C(=O)c1cc(F)ccc1-n1cc(C[C@@H]2CCN(CC3CCN(C(C)=O)CC3)C2)c2c(C)cncc21)C(C)C [Compound 314] | 
0.257 | 232 |  |  | 413 |  | COCC1CCCN1C(=O)c1cc(F)ccc1-n1cc(C[C@@H]2CCN(CC3CCN(C(C)=O)CC3)C2)c2c(C)cncc21 (stereo partly drawn) [Compound 321] | 
0.152 | 323 |  |  | ~547 |  | CC(=O)N1CCC(CN2CC[C@@H](Cc3cn(-c4ccc(F)cc4C(=O)N4CCC[C@@H]4CO)c4cncc(C)c34)C2)CC1 [Compound 322] | 
0.08 | 142 |  |  | ~146 |  | CC(=O)N1CCC(CN2CC[C@@H](Cc3cn(-c4ccc(F)cc4C(=O)N4CCC[C@H]4CO)c4cncc(C)c34)C2)CC1 [Compound 323] | 
0.038 | 16 |  |  | 23 |  | CC(=O)N1CCC(CN2CC[C@@H](Cc3cn(-c4ccc(F)cc4C(=O)N(CCO)C(C)C)c4cncc(C)c34)C2)CC1 [Compound 326] | 
0.166 | 79 |  |  | 358 |  | Cc1cncc2c1c(C[C@@H]1CCN(CC3CCOCC3)C1)cn2-c1ccc(F)cc1C(=O)N1C[C@H](O)C[C@H]1C [Compound 359] | 

— patent publication US20230250096A1, “SUBSTITUTED PHENYL-1H-PYRROLO[2,3-c] PYRIDINE DERIVATIVES” (Janssen Pharmaceutica NV, priority 2021, published 2023)
